In EP0469683A1, “Derivatives of 4-amino-1-methyltetralins, their preparation and their application in therapy” (LABORATOIRES LUCIEN, Société Anonyme :, priority 1990, dated 1992):
Marks after values point to notes of the source that are not given here.

Legend:
Assay type in all cases: in vivo
rat = assay: Carrageenan-induced hind paw oedema (plethysmometer); settings: 15 mg/kg, given 1 h before carrageenan; for % d'inhibitions de l'oedème/témoin à 3 h: 3 h after carrageenan; for % d'inhibitions de l'oedème/témoin à 4 h: 4 h after carrageenan; for % d'inhibitions de l'oedème/témoin à 5 h: 5 h after carrageenan
Source text: L'activité anti-inflammatoire de composés selon l'invention a été mise en évidence par l'étude de la réduction d'une réaction inflammatoire induite par injection de carragénine sous l'aponévrose plantaire de la patte postérieure du rat (carragénine Sigma type IV, solution de 1 % dans du soluté isotonique de NaCI).
Le test utilise un appareil de mesure de volume du type "pléthysmométre" constitué d'une structure en U remplie d'eau, une branche du U étant constituée d'un cylindre destiné à recevoir la patte de l'animal (la patte de l'animal est plongée jusqu'à coïncidence de l'articulation tibio-tarsienne avec un repère de base), l'autre branche étant constituée d'une pipette graduée permettant la mesure de volume en mode différentiel.
Selon le protocole expérimental, au temps "t0" on mesure le volume de la patte de l'animal puis on administre le produit de traitement à étudier (les animaux témoins recevant le véhicule d'administration dans les mêmes conditions). Au temps TO + 1 heure, on injecte sous l'aponévrose plantaire de chaque animal 0,05 ml de la solution de carragénine. Le volume de la patte de l'animal est mesuré 3, 4 et 5 heures après injection de la carragénine.
L'activité anti-inflammatoire est calculée en pourcentage de réduction de l'oedème chez les rats traités par rapport aux rats témoins.

souris [1] = assay: Abdominal cramps test (writhing test), acetic acid i.p.; settings: for résultats des tests complémentaires (crampes abdominales): other racemic diastereomer compared with the one shown in Tableau 4; for Degré de protection par rapport aux témoins: hydrochloride, 30 min before acetic acid; for Degré de protection par rapport aux témoins à 30´ / Degré de protection par rapport aux témoins à 1 h / Degré de protection par rapport aux témoins à 2 h / Degré de protection par rapport aux témoins à 4 h / Degré de protection par rapport aux témoins à 6 h: 4 mg/kg; for Degré de protection par rapport aux témoins à 30´: reading at 30 min; for Degré de protection par rapport aux témoins à 1 h: reading at 1 h; for Degré de protection par rapport aux témoins à 2 h: reading at 2 h; for Degré de protection par rapport aux témoins à 4 h: reading at 4 h; for Degré de protection par rapport aux témoins à 6 h: reading at 6 h
Procedure: Ce test, également connu sous le nom de WRITHING TEST, utilisé pour la sélection d'analgésiques/antalgiques à effet périphérique, consiste à rechercher une éventuelle protection vis-à-vis des crampes et/ou contorsions abdominales provoquées, chez la souris, par l'injection intrapéritonéale d'acide acétique.
Les composés ont été administrés sous forme de chlorhydrate par voie intrapéritonéale 30 minutes avant l'acide acétique.
Du point de vue cinétique de l'activité antalgique, des tests de crampes abdominales ont été poursuivis dans le temps avec des relevés à 30 minutes, 1 heure, 2 heures, 4 heures et 6 heures.

souris [2] = assay: Behavioural despair test (forced swimming, immobility time); settings: 25 mg/kg, given 30 min before 6 min exposure to water
Source text: L'activité antidépressive de composés selon l'invention a été mise en évidence par l'étude du comportement du désespoir chez la souris.
Selon le principe du test, un état dépressif est induit chez la souris en l'obligeant à nager dans un récipient cylindrique étroit d'où elle ne peut s'échapper. Après une période brève d'intense activité, la souris adopte une position immobile caractéristique, facilement identifiable. Les antidépresseurs réduisent ces moments d'immobilité.
Selon le protocole expérimental, les souris sont pré-exposées à l'eau à 25°C pendant 15 minutes, 24 heures avant le test. Pour le test on administre le composé à étudier 30 minutes avant une exposition à l'eau de 6 minutes. Le temps total d'immobilité de la 2e à la 6e minute est mesuré. Les animaux témoins reçoivent le véhicule d'administration du produit de traitement dans les mêmes conditions que les animaux traités.

souris [3] = assay: Acute toxicity: mortality after single intraperitoneal administration of increasing doses; settings: mouse
Procedure: La détermination de la mortalité chez la souris est observée à la suite de l'administration unique par voie intrapéritonéale de doses croissantes de composés à tester.
La dose limite DL100 pour les composés étudiés est supérieure ou égale à 100 mg/kg. Les doses DLO et DL100 des composés 27, 32 et 36 sont rassemblées dans le tableau 2: […]

souris [4] = assay: Abdominal cramps test (writhing test), acetic acid i.p.; settings: oral administration; for activité par voie orale: 16 mg/kg
souris [5] = assay: Hot plate test (56 C), reaction time to thermal pain stimulus; settings: hydrochloride, 1 h after administration
Source text: Cet essai consiste à mesurer le temps d'apparition d'une réaction au stimulus thermoalgique chez la souris.
L'animal est placé sur une plaque métallique portée à une température constante de 56 C. […] Après administration d'un analgésique, le délai d'apparition du réflexe s'allonge: on obtient une élévation de réaction du seuil.
Les composés ont été administrés par voie intrapéritonéale sous forme de chlorhydrate et testés sur les animaux 1 heure après leur administration. Les résultats sont donnés sur quelques exemples dans le tableau 3 suivant un pourcentage de variation du temps de réaction moyen après traitement par rapport à avant traitement.

[6] = DLO, single dose, intraperitoneal
[7] = DL100, single dose, intraperitoneal

CC1(c2ccc(F)cc2)CCC(N2CCN(CCOC(=O)Nc3ccccc3)CC2)c2ccccc21 (stereo not drawn) [27.p (cis)]
% d'inhibitions de l'oedème/témoin à 3 h (rat): 35* %
% d'inhibitions de l'oedème/témoin à 4 h (rat): 39** %
% d'inhibitions de l'oedème/témoin à 5 h (rat): 43** %
résultats des tests complémentaires (crampes abdominales) (souris [1]): résultats comparables

CC1(c2ccc(F)cc2)CCC(N2CCN(CCOC(=O)Nc3ccccc3)CC2)c2ccccc21 (stereo not drawn) [27.p (trans)]
activité antidépressive (souris [2]): activité antidépressive certaine
% d'inhibitions de l'oedème/témoin à 3 h (rat): 40** %
% d'inhibitions de l'oedème/témoin à 4 h (rat): 40*** %
% d'inhibitions de l'oedème/témoin à 5 h (rat): 39** %
Degré de protection par rapport aux témoins (souris [1]; 0,5 mg/kg intraperitoneal): 58%
Degré de protection par rapport aux témoins (souris [1]; 0,25 mg/kg intraperitoneal): 47%
Degré de protection par rapport aux témoins (souris [1]; 1 mg/kg intraperitoneal): 70%
Degré de protection par rapport aux témoins (souris [1]; 2 mg/kg intraperitoneal): 68%
Degré de protection par rapport aux témoins (souris [1]; 4 mg/kg intraperitoneal): 75%
Degré de protection par rapport aux témoins à 30´ (souris [1]): 84***
Degré de protection par rapport aux témoins à 1 h (souris [1]): 68***
Degré de protection par rapport aux témoins à 2 h (souris [1]): 53**
Degré de protection par rapport aux témoins à 4 h (souris [1]): 56***
Degré de protection par rapport aux témoins à 6 h (souris [1]): 21
Degré de protection par rapport aux témoins (souris [1]; 8 mg/kg intraperitoneal): 92%

CC1(c2ccc(F)cc2)CCC(N2CCN(CCOC(=O)Nc3ccccc3)CC2)c2ccccc21 (stereo not shown) [27.p]
Dose limite 0 en (souris [3]; [6]): >200 mg/kg

CC(=O)OCCN1CCN(C2CCC(C)(c3ccc(F)cc3)c3cc(C(C)(C)C)ccc32)CC1 (stereo not shown) [36.a]
activité par voie orale (souris [4]): actifs par voie orale
Variation du temps de réaction moyen en % (souris [5]; 15mg/kg intraperitoneal): 35%
Dose limite 0 en (souris [3]; in vivo, ip): 100 mg/kg
Dose limite 100 en (souris [3]; in vivo, ip): >200 mg/kg
Degré de protection par rapport aux témoins (souris [1]; 2 mg/kg intraperitoneal): 52%
Degré de protection par rapport aux témoins (souris [1]; 4 mg/kg intraperitoneal): 66%
Degré de protection par rapport aux témoins à 30´ (souris [1]): 69***
Degré de protection par rapport aux témoins à 1 h (souris [1]): 82***
Degré de protection par rapport aux témoins à 2 h (souris [1]): 60**
Degré de protection par rapport aux témoins à 4 h (souris [1]): 58***
Degré de protection par rapport aux témoins à 6 h (souris [1]): 38**
Degré de protection par rapport aux témoins (souris [1]; 8 mg/kg intraperitoneal): 94%
Degré de protection par rapport aux témoins (souris [1]; 15 mg/kg intraperitoneal): 85%

CC(C)(C)c1ccc2c(c1)C(C)(c1ccc(F)cc1)CCC2N1CCN(CCOC(=O)Nc2cccc3ccccc23)CC1 (stereo not shown) [36.n]
Dose limite 0 en (souris [3]; [6]): >200 mg/kg

CC(C)(C)c1ccc2c(c1)C(C)(c1ccc(F)cc1)CCC2N1CCN(CCOC(=O)Nc2ccccc2)CC1 (stereo not drawn) [36.p (cis)]
Degré de protection par rapport aux témoins (souris [1]; 0,5 mg/kg intraperitoneal): 61%
Degré de protection par rapport aux témoins (souris [1]; 1 mg/kg intraperitoneal): 44%
Degré de protection par rapport aux témoins (souris [1]; 2 mg/kg intraperitoneal): 61%
Degré de protection par rapport aux témoins (souris [1]; 4 mg/kg intraperitoneal): 90%
Degré de protection par rapport aux témoins à 30´ (souris [1]): 89***
Degré de protection par rapport aux témoins à 1 h (souris [1]): 69***
Degré de protection par rapport aux témoins à 2 h (souris [1]): 68***
Degré de protection par rapport aux témoins à 4 h (souris [1]): 46**
Degré de protection par rapport aux témoins à 6 h (souris [1]): 24
Degré de protection par rapport aux témoins (souris [1]; 8 mg/kg intraperitoneal): 93%

CC(C)(C)c1ccc2c(c1)C(C)(c1ccc(F)cc1)CCC2N1CCN(CCOC(=O)Nc2ccccc2)CC1 (stereo not drawn) [36.p (trans)]
Variation du temps de réaction moyen en % (souris [5]; 25 mg/kg intraperitoneal): 63* %
résultats des tests complémentaires (crampes abdominales) (souris [1]): résultats comparables

CC(C)(C)c1ccc2c(c1)C(C)(c1ccc(F)cc1)CCC2N1CCN(CCOC(=O)Nc2ccccc2)CC1 (stereo not shown) [36.p]
activité par voie orale (souris [4]): actifs par voie orale
Dose limite 100 en (souris [3]; [7]): >200 mg/kg
Dose limite 0 en (souris [3]; [6]): 100 mg/kg

CC(C)(C)c1ccc2c(c1)C(C)(c1ccccc1)CCC2N1CCOCC1 (stereo not drawn) [39 (cis)]
Degré de protection par rapport aux témoins (souris [1]; 0,5 mg/kg intraperitoneal): 53%
Degré de protection par rapport aux témoins (souris [1]; 1 mg/kg intraperitoneal): 58%
Degré de protection par rapport aux témoins (souris [1]; 2 mg/kg intraperitoneal): 54%
Degré de protection par rapport aux témoins (souris [1]; 4 mg/kg intraperitoneal): 63%
Degré de protection par rapport aux témoins (souris [1]; 8 mg/kg intraperitoneal): 89%

CC(C)(C)c1ccc2c(c1)C(C)(c1ccccc1)CCC2N1CCOCC1 (stereo not drawn) [39 (trans)]
Variation du temps de réaction moyen en % (souris [5]; 25 mg/kg intraperitoneal): 58%
résultats des tests complémentaires (crampes abdominales) (souris [1]): résultats comparables

CC1(c2ccc(F)cc2)CCC(N2CCN(CCO)CC2)c2ccccc21 (stereo not shown) [compound 27]
pourcentages de protection (souris [4]; 60 mg/kg): 86%
Variation du temps de réaction moyen en % (souris [5]; 15mg/kg intraperitoneal): 29%
Dose limite 100 en (souris [3]; [7]): 200 mg/kg
Dose limite 0 en (souris [3]; [6]): 100 mg/kg
doses limites DLO et DL100 par rapport à l'amino-4-trifluorométhyl-1 tétraline correspondante (souris [3]; intraperitoneal, compared with the corresponding 4-amino-1-trifluoromethyl tetralin): deux fois
Degré de protection par rapport aux témoins (souris [1]; 4 mg/kg intraperitoneal): 49%
Degré de protection par rapport aux témoins (souris [1]; 8 mg/kg intraperitoneal): 66%
Degré de protection par rapport aux témoins (souris [1]; 15 mg/kg intraperitoneal): 92%
pourcentages de protection (souris [1]; oral administration, 32 mg/kg): 37%
activité par rapport à l'amino-4-trifluoro-méthyl-1 tétraline correspondante (souris [1]; writhing test, intraperitoneal): activité nettement améliorée

CC(C)(C)c1ccc2c(c1)C(C)(c1ccccc1)CCC2N1CCN(CCO)CC1 (stereo not shown) [compound 32]
Variation du temps de réaction moyen en % (souris [5]; 8mg/kg intraperitoneal): 16%
Dose limite 0 en (souris [3]; in vivo, ip): 25 mg/kg
Dose limite 100 en (souris [3]; in vivo, ip): 100 mg/kg
Degré de protection par rapport aux témoins (souris [1]; 8 mg/kg intraperitoneal): 41%
